# “Also recorded” adds a separate entry of the source. Where two headings read alike, the source gives them in different places.
# What was measured:
# HIF-1a protein [1] = experiment: HIF-1a levels in nuclear extracts of U87 glioma cells (western blot); assay type: cell-based, human; details: for Effect on induction of HIF-1a by glucose (Krebs buffer): 50 μM IAA, 1 mM 4-CIN, NAD or NADH 3 mM each, catalase 1000 and 2000 units/ml; for HIF-1a accumulation, glucose replaced with metabolite: glucose-free Krebs, 3 mM concentrations
# Experimental: (A) U87 glioma cells cultured in DMEM were switched to Krebs buffer containing 5.5 mM glucose (Glc) and then evaluated for nuclear HIF-1a levels at various times by western blot analysis. (B) HIF-1a levels were measured after four hours incubation of cells in Krebs buffer containing the indicated glucose concentrations or with 5.5 mM 2-deoxyglucose (2-DG) substituted for glucose. (C) HIF-1a levels were measured in U87 cells cultured in glucose-free Krebs buffer following treatment for four hours under normoxia (21% oxygen) hypoxia (1% oxygen) or with 150 μm desferrioxamine (DFO). (D) Induction of HIF-1a by glucose was monitored in the presence of 50 μM IAA or 1 mM 4-CIN. […] Results are representative of experiments repeated at least three times.
# Similar measurements were made in the presence of 50 μM IAA or in glucose-free Krebs buffer. […] HIF-1a induction by four hours treatment with 5.5 mM glucose-containing Krebs (Glc) is shown for comparison. (E) Digitonin-permeabilized cells were treated with 1% oxygen or Krebs containing either 5.5 mM glucose or 2 mM pyruvate in the presence of 50 μM IAA. Permeabilized cell in lanes 5 and 6 were treated with 3 mM NAD or NADH respectively in glucose free Krebs. Nuclear HIF-1a levels were determined four hours later. (F) HIF-1a levels were determined after four hour treatment of cells in glucose-free Krebs (lane 1) or 5.5 mM Glucose containing Krebs. […] (H) To measure the decay of the HIF-1a protein, HIF-1a measurements were made after four hour treatment under hypoxia (lane 1), four hours hypoxia followed by 30 minutes normoxia (lane 2), four hour treatment with 150 μM DFO (lane 3), four hours DFO followed by addition of 100 μM CHX for one hour (lane 4), four hours treatment with 2 mM pyruvate (lane 5), and four hours pyruvate followed by addition of 100 μM CHX for one hour (lane 6). (H) HIF-1a levels were determined in digitonin-permeabilized cells treated for four hour with Krebs containing no glucose (lane 1), 1 mM pyruvate (lane 2), or 1 mM pyruvate and 10 mM 2-OG (lane 3).
# In order to resolve the biochemical mechanisms underlying this phenomenon, we studied the human glioma cell line U-87 under conditions of carefully defined culture media. Thus we studied these cells while culturing them in freshly prepared Krebs buffer, all components of which were known to us.
# To precisely define the glucose metabolite mediating HIF-1a accumulation, we utilized pharmacological inhibitors of glycolysis as well as the direct addition of different glucose metabolites to cells (FIG. 4).
# HRE containing promoter = experiment: HRE-luciferase reporter in U251 cells; assay type: cell-based, human
# Description: FIG. 18: 2-oxoacids activate HIF-mediated gene expression in human cell lines Effective gene expression by HIF not only involves HIF protein stabilization via inhibition of HPH enzymes but also HIF-1 binding to DNA, inhibition of FIH-1 activity, and gene transcription (see FIG. 1). (A) Glioma cells used in our studies express FIH-1 as assessed using RT-PCR. […] Expression of beta-actin, a housekeeping gene not under HIF regulation is not affected by pyruvate. […] (E) U373 cell were transfected with a green fluorescent protein (GFP) construct under the control of an HIF regulatory element (HRE) containing promoter and then cultured for eight hours in glucose-free medium under the indicated conditions. […] U251 cells stably transfected with a luciferase construct under the control of an HRE containing promoter were cultured for six hours in glucose free Krebs with the following conditions: 1=control, 2=1% oxygen, 3=pyruvate (2 mM), 4=OAA (2 mM), 5=Ethylpyruvate (2 mM), 6=Glucose (5.5 mM), 7=DMOG (0.5 mM), 8=Lactacystin-beta lactone ([…]).
# FIG. 19: HIF-mediated gene expression is selectively reversed by ascorbate U251 cells stably expressing HRE-luciferase were cultured in glucose-free Krebs buffer with the indicated conditions for eight hours. Pyruvate, oxaloacetate, and DMOG were added at 1 mM each.
# Effective gene expression by HIF not only involves HIF protein stabilization via inhibition of HPH enzymes but also HIF-1 binding to DNA, inhibition of FIH-1 activity, and gene transcription. The human gliomas that we utilized for most of our studies all express mRNA for FIH-1 (FIG. 18A). […] To directly assess activation of gene containing an HRE regulated promoter by the glucose metabolites pyruvate and oxaloacetate, we used U373 glioma cells transfected with an HRE-green fluorescent (HRE-GFP) construct that responds to HIF activation.
# HPH-1 [2] = target: T1, HPH-1 (Homo sapiens, UniProt Q9H6Z9); details: 20 mM competitor, ^35S-HPH-1, total binding
# T1 sequence (Q9H6Z9 whole entry): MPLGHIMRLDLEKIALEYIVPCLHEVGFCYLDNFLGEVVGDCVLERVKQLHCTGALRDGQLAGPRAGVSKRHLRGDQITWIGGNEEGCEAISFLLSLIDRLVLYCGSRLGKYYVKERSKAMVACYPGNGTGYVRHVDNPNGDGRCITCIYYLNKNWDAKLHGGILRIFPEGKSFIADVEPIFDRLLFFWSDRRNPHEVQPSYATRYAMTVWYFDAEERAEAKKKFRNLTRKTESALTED
# Experimental: Following four further washes radiolabel associated with the pellets was measured via scintillation counting.
# We also prepared ^35S-labeled HPH homologues from expression plasmids using the rabbit reticulocyte culture system (Bruick et al. (2001) Science 294, 1337-1340). The 2-OG column allowed us to investigate the binding of ^35S-HPH as well as potential competitors of binding.
# HPH-1 [3] = target: T1, HPH-1; experiment: ^35S-pVHL capture assay, HPH-1; assay type: biochemical; design: made in house; host or cells: rabbit reticulocyte in vitro translation from expression plasmids; details: assay optimization shown for HPH-1, dose curves
# Experimental: After incubating the peptide with the HPHs and the indicated reagents, ^35S-pVHL was added followed by addition of streptavidin-coated beads to pull down the HIF-1a peptide. The reaction was pelleted, the pellet was washed and then solubilized for SDS-PAGE analysis followed by autoradiography to reveal the captured ^35S-pVHL. Using in vitro translated HPH homologues we first optimized assay conditions with respect to the required HPH substrates and co-factors. […] Conditions: ascorbate=2 mM, 2-OG=2 mM, DTT=1 mM. […] In all assays 5 μl (about 20 ng) of enzyme and 1 μg of peptide was utilized.
# Ascorbate concentrations were varied as indicated and OAA or Pyr were added where indicated at 1 mM.
# After incubating 1 μg amount of the peptide with in vitro translated HPH and the indicated reagents, ^35S-pVHL was added followed by the addition of Streptavidin-coated beads to pull down the HIF-1a peptide. The reaction was pelleted, and the pellet was washed and solubilized for SDS-PAGE analysis followed by autoradiography to reveal the captured ^35S-pVHL. Using each of the in vitro translated HPH homologues we first optimized assay conditions with respect to the required HPH substrates and co-factors.
# HIF-1a [4] = experiment: HIF-1a induction in digitonin-permeabilized human glioma cells (U87, U251); assay type: cell-based; details: 1 mM ATP
# HPH = HPH activity of extracts of pretreated U251 cells (^35S-pVHL pulldown); assay type: cell-based, human; details: four hours, 1 mM pyruvate or oxaloacetate, DMOG
# Experimental: FIG. 17: Inactivation of cellular HPH activity by pyruvate and oxaloacetate U251 cells were cultured for four hours in glucose-free Krebs buffer with or without the indicated additions. Whole cell extracts were then prepared and used as a source of HPH enzyme to hydroxylate a biotinylated peptide from the HIF-1a ODD containing proline 564. Proline hydroxylation was measured by the ability of streptavidin coated beads to pulldown the hydroxyproline ^35S-pVHL complex as in FIGS. 12-14.
# To directly determine whether HPH activity had been inactivated by pyruvate or oxaloacetate treatment, we evaluated the ability of U251 cell extracts from pyruvate or oxaloacetate treated cells to hydroxylate HIF-1a peptide using the ^35S-pVHL pulldown assay (Ivan et al. (2002) Proc. Natl. Acad. Sci. USA 99, 13459-13466). In these experiments, ascorbate was omitted from the in vitro portion of the assay.
# HIF-1a [5] = experiment: HIF-1a induction in digitonin-permeabilized human glioma cells (U87, U251); assay type: cell-based; details: 1 mM doses
# Experimental: We determined the ability of each shown structure to induce HIF by exposing digitonin-permeabilized human glioma cells (U87, U251) to 1 mM doses.
# At four hours, ATP levels were measured in cell extracts using the luciferase method.
# (§1) In order to investigate the mechanism of action of the 2-oxoacid HIF inducers that we identified we first determined their effects upon cellular ATP levels. […] As shown in the scheme in FIG. 1, cellular levels of HIF-1a can be elevated by blockade of proteasomal activity, ubiquitinylation, or prolyl hydroxylation. Inhibition of the proteasome by lactacystin beta-lactone (Lbl) leads to accumulation of HIF-1a in its polyubiquitinylated form which generally appears as a smear of higher molecular weight species on western blots. […] Cellular accumulation and nuclear translocation of HIF-1a can also be studied via immunohistochemistry. For this purpose we utilized U251 cells which are more adherent to cell culture dishes that the U87 cells.
# HIF-1a [6] = experiment: HIF-1a decay after washout of the inducer in U251 and U87 cells; assay type: cell-based, human; details: 1 mM pyruvate four hours, then glucose free Krebs in normoxia
# Experimental: FIG. 16: Ascorbate reverses the prolonged HIF-1a accumulation (A) Comparison of HIF-1a decay in U251 following induction with either hypoxia or pyruvate. U251 cells were cultured in glucose-free Krebs under hypoxia or with 1 mM pyruvate in normoxia for four hours. Following this cells were switched to glucose free Krebs in normoxia and fixed in formaldehyde at the indicated times. Cells were then stained for HIF-1a immunoreactivity. Note the rapid decay of nuclear HIF-1a staining after having been induced by hypoxia versus pyruvate. (B) U87 cell treated for four hours under hypoxia show prominent HIF-1a induction which is completely degraded by thirty minutes of re-oxygenation. U87 cells were treated in glucose-free Krebs buffer with or without 1 mM pyruvate or oxaloacetate.
# HPH-2 has been reported to constitute the major HPH activity of most cells. We therefore evaluated the ability of ascorbate to prevent HIF-1a accumulation by pyruvate and oxaloacetate in living cells. […] To test this possibility we compared the reversibility of HIF-1a accumulation following induction with either hypoxia, pyruvate, or oxaloacetate. The rationale for these experiments stems from the well-known reversible inhibition of HPH activity by hypoxia (see FIG. 1). Thus HIF-1a accumulation and HIF activation during hypoxia is rapidly reversed upon re-oxygenation. […]
# HIF-1a protein [7] = experiment: Nuclear HIF-1a accumulation in glioma cells by immunohistochemistry; assay type: cell-based, human; details: 2 mM, four hours, glucose-free Krebs buffer, Lbl 20 μM
# Description: Cells were then washed, fixed and stained for HIF-1a protein.
# as §1
compound,measurement,setting,value
O=CC[C@@H](O)[C@H](O)[C@H](O)CO [2-deoxyglucose],HIF-1a levels,"HIF-1a protein [1]; Krebs buffer with glucose or 5.5 mM 2-deoxyglucose, four hours, normoxia",could not be mimicked
O=C(O)CCC(=O)C(=O)O [2-oxoglutarate],Reversal of HRE-luciferase activation by pyruvate or oxaloacetate,"HRE containing promoter; eight hours, oxaloacetate 1 mM, 2-oxoglutarate 10 mM",No reversal was seen
same,Displacement of HPH binding to the 2-oxoglutarate column,HPH-1 [2],Nearly half of the total binding of HPH to the 2-oxoglutarate column could be displaced
same,Displacement of HPH binding to the 2-oxoglutarate column,HPH-1 [2]; listed as 2-OG,could displace this binding
same,Requirement of substrates and co-factors for HPH activity,HPH-1 [3],absolutely required for activity
Nc1ncnc2c1ncn2[C@@H]1O[C@H](COP(=O)(O)OP(=O)(O)OP(=O)(O)O)[C@@H](O)[C@H]1O [ATP],HIF-1a levels after direct addition of ATP,HIF-1a [4],did not raise basal HIF-1a levels; also recorded: had no effect on HIF-1a levels
"O=C(O)C=Cc1ccc(O)cc1 [Cinnamate, 4-hydroxycinnamate]",Effect on induction of HIF-1a by glucose (Krebs buffer),HIF-1a protein [1],did not prevent the effect of Krebs buffer on HIF-1a accumulation
"COC(=O)CNC(=O)C(=O)OC [DMOG, dimethyloxalylglycine]",HPH activity of extracts of pretreated cells,HPH,No such pretreatment-induced inhibition; also recorded: no such loss of HPH activity
same,"Ability to induce HIF (HIF-1a accumulation), structure-activity",HIF-1a [5],consistently enhanced HIF-1a levels
NC(=O)CI [Iodoacetamide],Effect on induction of HIF-1a by glucose (Krebs buffer),HIF-1a protein [1],completely blocked the ability of Krebs buffer to stimulate HIF-1a accumulation
"O=S(=O)([O-])[O-].[Fe+2] [Iron, iron sulfate]",Requirement of substrates and co-factors for HPH activity,HPH-1 [3],absolutely required up to a maximal of about 100 μM
NC(=O)C1=CN([C@@H]2O[C@H](COP(=O)(O)OP(=O)(O)OC[C@H]3O[C@@H](n4cnc5c(N)ncnc54)[C@H](O)[C@@H]3O)[C@@H](O)[C@H]2O)C=CC1 [NADH],Effect on induction of HIF-1a by glucose (Krebs buffer),HIF-1a protein [1],neither NAD or NADH (3 mM each) had any effect on this induction
NC(=O)c1ccc[n+]([C@@H]2O[C@H](COP(=O)([O-])OP(=O)(O)OC[C@H]3O[C@@H](n4cnc5c(N)ncnc54)[C@H](O)[C@@H]3O)[C@@H](O)[C@H]2O)c1 [NAD],Effect on induction of HIF-1a by glucose (Krebs buffer),HIF-1a protein [1],neither NAD or NADH (3 mM each) had any effect on this induction
C[C@H](N)C(=O)O [alanine],"HIF-1a accumulation, glucose replaced with metabolite",HIF-1a protein [1]; four hours,without effect
CC[C@H](C)C(=O)C(=O)O [alpha-keto-beta-methylvalerate],"Ability to induce HIF (HIF-1a accumulation), structure-activity",HIF-1a [5],capable of stimulating HIF-1a accumulation
O=C(O)CCCC(=O)C(=O)O [alpha-ketoadipate],"Ability to induce HIF (HIF-1a accumulation), structure-activity",HIF-1a [5],ineffectiveness
CCC(=O)C(=O)O [alpha-ketobutyrate],"Ability to induce HIF (HIF-1a accumulation), structure-activity",HIF-1a [5],ineffectiveness
CC(C)CC(=O)C(=O)O [alpha-ketoisocaproate],"Ability to induce HIF (HIF-1a accumulation), structure-activity",HIF-1a [5],capable of stimulating HIF-1a accumulation
CC(C)C(=O)C(=O)O [alpha-ketoisovalerate],"Ability to induce HIF (HIF-1a accumulation), structure-activity",HIF-1a [5],capable of stimulating HIF-1a accumulation
O=C(O)CC(O)(CC(=O)O)C(=O)O [citrate],"HIF-1a accumulation, glucose replaced with metabolite",HIF-1a protein [1]; four hours,without effect
"CCOC(=O)C(C)=O [ethylpyruvate, Ethylpyruvate]","HIF-1a accumulation, glucose replaced with metabolite",HIF-1a protein [1]; four hours,as pronounced as those of the known 2-oxoglutarate antagonist dimethyloxalylglycine (DMOG)
same,HRE-luciferase expression,"HRE containing promoter; six hours, glucose free Krebs, pyruvate, OAA, Ethylpyruvate 2 mM, Lactacystin-beta lactone 20 mM",prominent activation of luciferase gene expression
same,"Ability to induce HIF (HIF-1a accumulation), structure-activity",HIF-1a [5],identified as HIF-1 activators
O=C(O)CC(O)C(=O)O (stereo not shown) [malate],"Ability to induce HIF (HIF-1a accumulation), structure-activity",HIF-1a [5],ineffective
CC(=O)C(=O)O [pyruvate],Persistence of HIF-1a accumulation after washing out,HIF-1a [6],> 40 min
Catalase,Effect on induction of HIF-1a by glucose (Krebs buffer),HIF-1a protein [1],had no effect
lactate,"HIF-1a accumulation, glucose replaced with metabolite",HIF-1a protein [1]; four hours,activate HIF-1a directly
succinate,"HIF-1a accumulation, glucose replaced with metabolite",HIF-1a protein [1]; four hours,without effect
same,Displacement of HPH binding to the 2-oxoglutarate column,HPH-1 [2],could not; also recorded: but not by 20 mM succinate
same,Nuclear HIF-1a accumulation (immunostaining),HIF-1a protein [7],ineffectiveness
same,Nuclear HIF-1a accumulation (immunostaining),HIF-1a protein [7]; listed as Succinate,does not affect HIF-1a accumulation

# Reference: patent publication US20070173545A1, “Activation of hypoxia-inducible gene expression” (priority 2003, published 2007)
